From patent US11629171B2, “Beta-hairpin peptidomimetics” (POLYPHOR AG, priority 2017, dated 2023)
Converted amounts (≈) assume the structure as drawn. Where a SMILES comes first, the peptide text is derived from it. Bridges are numbered along the chain shown (N, C = ends). Roman numbers before positions name the chains, in order. [ ]: non-standard residue; d: D form. The star is where a group is joined. Tle = CC(C)(C)[C@H](N)C(=O)O; Hiv = CC(C)[C@H](O)C(=O)O; dDab = NCC[C@@H](N)C(=O)O; hSer = N[C@@H](CCO)C(=O)O; NHCH(CH2OH)2 = OCC(CO)N*; Orn = NCCC[C@H](N)C(=O)O; Dab = NCC[C@H](N)C(=O)O; Dap = NC[C@H](N)C(=O)O

Key:
Format in all cases: cell-based
[1] = system: Acinetobacter baumannii 872842; conditions: 872842
Outline: (§1)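 Visible-growth endpoint after 18-20 h at 35° C defines the MIC (μg/mL). Setup: CLSI broth microdilution, MH-II cation-adjusted broth with P-80 at 0.002% final, inoculum of approximately 10^6 CFU/mL, two-fold serial peptide dilutions.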

[2] = system: Acinetobacter baumannii DSM 30008; conditions: DSM 30008
Outline: as §1

[3] = system: Enterobacter cloacae 848840; conditions: 848840
Outline: as §1

Escherichia coli 926415 = conditions: 926415
Outline: as §1

[4] = system: Escherichia coli ATCC 25922; conditions: ATCC 25922
Outline: as §1

[5] = system: Klebsiella pneumoniae 968733; conditions: 968733
Outline: as §1

[6] = system: Klebsiella pneumoniae SSI #3010; conditions: SSI #3010
Outline: as §1

[7] = system: Pseudomonas aeruginosa ATCC 27853; conditions: ATCC 27853
Outline: as §1

[8] = system: human red blood cells (hRBC); experiment: Hemolysis; conditions: red cells of human, 1 h, 200
Outline: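 Percent hemolysis relative to 2% Triton X-100 (100%) and PBS/10% water (0%), from blank-corrected OD540 of diluted supernatants. Peptides tested at 200 μg/mL against 20% (v/v) washed human erythrocytes, 1 h, 37° C, shaking at 300 rpm.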

Structure (SMILES) | MIC [1] [µg/mL] | MIC [2] [µg/mL] | MIC [3] [µg/mL] | MIC (Escherichia coli 926415) [µg/mL] | MIC [4] [µg/mL] | MIC [5] [µg/mL] | MIC [6] [µg/mL] | MIC [7] [µg/mL] | Hemolysis at 200 μg/mL [8] [%]
CC(=O)N[C@H](C(=O)N[C@H]1CSSC[C@@H](C(=O)N[C@@H](CO)C(N)=O)NC(=O)[C@H](C(C)C)NC(=O)[C@H](CCC(=O)O)NC(=O)[C@H](Cc2c[nH]c3ccccc23)NC(=O)[C@H](CCO)NC(=O)[C@@H](CCN)NC(=O)[C@H](CCC(=O)N[C@@H](CCN)C(=O)N[C@H](C(=O)N[C@@H](CN)C(=O)N[C@H]2CCNC(=O)[C@H]([C@@H](C)O)NC(=O)[C@H](CCN)NC(=O)[C@H](CCN)NC(=O)[C@H](CC(C)C)NC(=O)[C@@H](CC(C)C)NC(=O)[C@H](CCN)NC2=O)[C@@H](C)O)NC(=O)[C@H](CCCCN)NC(=O)[C@H](Cc2ccc(O)cc2)NC1=O)C(C)C [Ex. 158] (I: Ac-VCYKE[dDab][hSer]WEVCS-NH2 / II: [Dab]T[Dap][Dab][Dab][dL]L[Dab][Dab]T; disulfide I:2-I:11; amide I:5-II:N; lactam II:4-II:C) | 0.25 (≈ 0.101 µM) | 0.0625 (≈ 0.0252 µM) | 0.125 (≈ 0.0503 µM) | 0.5 (≈ 0.201 µM) | 0.0625 (≈ 0.0252 µM) | 1 (≈ 0.403 µM) | 0.125 (≈ 0.0503 µM) | 0.25 (≈ 0.101 µM) | <1
CC(=O)N[C@H](C(=O)N[C@H]1CSSC[C@@H](C(=O)N[C@@H](CO)C(N)=O)NC(=O)[C@H](C(C)(C)C)NC(=O)[C@H](CCC(=O)O)NC(=O)[C@H](Cc2c[nH]c3ccccc23)NC(=O)[C@H](CCO)NC(=O)[C@@H](CCN)NC(=O)[C@H](CCC(=O)N[C@@H](CCN)C(=O)N[C@H](C(=O)N[C@@H](CN)C(=O)N[C@H]2CCNC(=O)[C@H]([C@@H](C)O)NC(=O)[C@H](CCN)NC(=O)[C@H](CCN)NC(=O)[C@H](CC(C)C)NC(=O)[C@@H](CC(C)C)NC(=O)[C@H](CCN)NC2=O)[C@@H](C)O)NC(=O)[C@H](CCCCN)NC(=O)[C@H](Cc2ccc(O)cc2)NC1=O)C(C)C [Ex. 159] (I: Ac-VCYKE[dDab][hSer]WE[Tle]CS-NH2 / II: [Dab]T[Dap][Dab][Dab][dL]L[Dab][Dab]T; disulfide I:2-I:11; amide I:5-II:N; lactam II:4-II:C) | 0.25 (≈ 0.1 µM) | 0.0625 (≈ 0.025 µM) | 0.125 (≈ 0.0501 µM) | 0.25 (≈ 0.1 µM) | 0.0625 (≈ 0.025 µM) | 0.5 (≈ 0.2 µM) | 0.125 (≈ 0.0501 µM) | 0.125 (≈ 0.0501 µM) | <1
CC(C)C[C@@H]1NC(=O)[C@@H](CC(C)C)NC(=O)[C@H](CCN)NC(=O)[C@@H](NC(=O)[C@H](CN)NC(=O)[C@@H](NC(=O)[C@H](CCN)NC(=O)CC[C@@H]2NC(=O)[C@H](CCCN)NC(=O)[C@H](CCN)NC(=O)[C@H](Cc3ccc(O)cc3)NC(=O)[C@@H](NC(=O)[C@@H](O)C(C)C)CSSC[C@@H](C(=O)N[C@H](C(N)=O)[C@@H](C)O)NC(=O)[C@H](C(C)(C)C)NC(=O)[C@H](CO)NC(=O)[C@H](Cc3c[nH]c4ccccc34)NC(=O)[C@H]([C@@H](C)O)NC2=O)[C@@H](C)O)CCNC(=O)[C@H]([C@@H](C)O)NC(=O)[C@H](CCN)NC(=O)[C@H](CCN)NC1=O [Ex. 160] (I: H-[Hiv]CY[Dab][Orn]ETWS[Tle]CT-NH2 / II: [Dab]T[Dap][Dab][Dab][dL]L[Dab][Dab]T; disulfide I:2-I:11; amide I:6-II:N; lactam II:4-II:C) | 0.5 (≈ 0.207 µM) | 0.125 (≈ 0.0518 µM) | 2 (≈ 0.829 µM) | 0.5 (≈ 0.207 µM) | 0.125 (≈ 0.0518 µM) | 0.5 (≈ 0.207 µM) | 0.25 (≈ 0.104 µM) | 0.25 (≈ 0.104 µM) | <1
CC(C)C[C@@H]1NC(=O)[C@@H](CC(C)C)NC(=O)[C@H](CCN)NC(=O)[C@@H](NC(=O)[C@H](CN)NC(=O)[C@@H](NC(=O)[C@H](CCN)NC(=O)CC[C@H]2NC(=O)[C@H](CCCN)NC(=O)[C@H](CCN)NC(=O)[C@H](Cc3ccc(O)cc3)NC(=O)[C@@H](NC(=O)[C@@H](O)C(C)C)CSSC[C@@H](C(=O)NC(CO)CO)NC(=O)[C@H](C(C)(C)C)NC(=O)[C@H](CO)NC(=O)[C@H](Cc3c[nH]c4ccccc34)NC(=O)[C@H]([C@@H](C)O)NC2=O)[C@@H](C)O)CCNC(=O)[C@H]([C@@H](C)O)NC(=O)[C@H](CCN)NC(=O)[C@H](CCN)NC1=O [Ex. 163] (I: H-[Hiv]CY[Dab][Orn][dE]TWS[Tle]C-{NHCH(CH2OH)2} / II: [Dab]T[Dap][Dab][Dab][dL]L[Dab][Dab]T; disulfide I:2-I:11; amide I:6-II:N; lactam II:4-II:C) | 0.25 (≈ 0.105 µM) | 0.125 (≈ 0.0524 µM) | 4 (≈ 1.68 µM) | 0.5 (≈ 0.209 µM) | 0.125 (≈ 0.0524 µM) | 0.5 (≈ 0.209 µM) | 0.25 (≈ 0.105 µM) | 0.25 (≈ 0.105 µM) | 1
CC(C)C[C@@H]1NC(=O)[C@H](CCN)NC(=O)[C@H](CCN)NC(=O)[C@H](CC(C)C)NC(=O)[C@@H](CC(C)C)NC(=O)[C@H](CCN)NC(=O)[C@@H](NC(=O)[C@@H](CCN)NC(=O)CC[C@H]2NC(=O)[C@H](CCCN)NC(=O)[C@H](CCN)NC(=O)[C@H](Cc3ccc(O)cc3)NC(=O)[C@@H](NC(=O)[C@@H](O)C(C)C)CSSC[C@@H](C(=O)N[C@H](C(N)=O)[C@@H](C)O)NC(=O)[C@H](C(C)(C)C)NC(=O)[C@H](CO)NC(=O)[C@H](Cc3c[nH]c4ccccc34)NC(=O)[C@H]([C@@H](C)O)NC2=O)CCNC1=O [Ex. 165] (I: H-[Hiv]CY[Dab][Orn][dE]TWS[Tle]CT-NH2 / II: [dDab][Dab][Dab][dL]L[Dab][Dab]L; disulfide I:2-I:11; amide I:6-II:N; lactam II:2-II:C) | 1 (≈ 0.447 µM) | 1 (≈ 0.447 µM) | 4 (≈ 1.79 µM) | 0.125 (≈ 0.0558 µM) | 0.25 (≈ 0.112 µM) | 0.5 (≈ 0.223 µM) | 0.25 (≈ 0.112 µM) | 0.5 (≈ 0.223 µM) | <1
CC(C)C[C@@H]1NC(=O)[C@@H](CC(C)C)NC(=O)[C@H](CCN)NC(=O)[C@@H](NC(=O)[C@H](CN)NC(=O)[C@@H](NC(=O)[C@H](CCN)NC(=O)CC[C@@H]2NC(=O)[C@@H](CCN)NC(=O)CNC(=O)[C@H](CCN)NC(=O)[C@H](Cc3ccc(O)cc3)NC(=O)[C@@H](NC(=O)[C@@H](O)C(C)C)CSSC[C@@H](C(=O)N[C@H](C(N)=O)[C@@H](C)O)NC(=O)[C@H](C(C)(C)C)NC(=O)[C@H](CO)NC(=O)[C@H](Cc3c[nH]c4ccccc34)NC2=O)[C@@H](C)O)CCNC(=O)[C@H]([C@@H](C)O)NC(=O)[C@H](CCN)NC(=O)[C@H](CCN)NC1=O [Ex. 168] (I: H-[Hiv]CY[Dab]G[dDab]EWS[Tle]CT-NH2 / II: [Dab]T[Dap][Dab][Dab][dL]L[Dab][Dab]T; disulfide I:2-I:11; amide I:7-II:N; lactam II:4-II:C) | 0.125 (≈ 0.0531 µM) | 0.125 (≈ 0.0531 µM) | 0.25 (≈ 0.106 µM) | 0.125 (≈ 0.0531 µM) | 0.0625 (≈ 0.0265 µM) | 0.5 (≈ 0.212 µM) | 0.125 (≈ 0.0531 µM) | 0.25 (≈ 0.106 µM) | <1
